Source: patent US7018613B2, “Preparations for evaluating eliminative ability of stomach” (Otsuka Pharmaceutical Co., Ltd., priority 2000, dated 2006)

Test: exhalation test (13CO2/12CO2, carbon dioxide gas Δ value) after oral administration to beagle dogs

excretion of labeled carbon dioxide gas from the body, in words (male beagle dogs without propantheline, n=4, FIG. 4)	time of maximum of the carbon dioxide gas Δ value, in words (male beagle dogs, n=4, control test, 100 mg NaH13CO3, FIG. 4)	Compound	excretion of labeled carbon dioxide gas in the exhalation in the group receiving propantheline versus untreated group (beagle dogs given the capsule of Example 8 granules after propantheline, n=4)
rapidly excreted from the body	immediately after administration	O=C([O-])O.[Na+] [sodium hydrogencarbonate solution, sodium hydrogencarbonate]	–
–	–	CC(C)[N+](C)(CCOC(=O)C1c2ccccc2Oc2ccccc21)C(C)C [propantheline]	slow compared to that seen in the beagle dogs of the untreated group
